# Laboratory results as given in ChEMBL document CHEMBL3400015, “Tertiary amides of Salinomycin: A new group of antibacterial agents against Bacillus anthracis and methicillin-resistant Staphylococcus epidermidis” (Bioorg Med Chem Lett, 2015).
# Key:
# [1] = tested on: Staphylococcus epidermidis; assay: Bactericidal activity against methicillin-resistant Staphylococcus epidermidis isolate 454/11 after 24 hrs; format: functional; settings: isolate 454/11, 24 h, read-out: MBC99.9
# [2] = tested on: Staphylococcus epidermidis; assay: Antimicrobial activity against methicillin-resistant Staphylococcus epidermidis isolate 458/11 after 18 hrs by twofold serial broth dilution method; format: functional; settings: isolate 458/11, 18 h
# [3] = tested on: Staphylococcus epidermidis; assay: Bactericidal activity against methicillin-resistant Staphylococcus epidermidis isolate 424/10 after 24 hrs; format: functional; settings: isolate 424/10, 24 h, read-out: MBC99.9
# [4] = tested on: Staphylococcus aureus; assay: Antimicrobial activity against Staphylococcus aureus NCTC 4163 after 18 hrs by twofold serial broth dilution method; format: functional; settings: NCTC 4163, 18 h
# [5] = tested on: Staphylococcus aureus; assay: Bactericidal activity against Staphylococcus aureus ATCC 6538 after 24 hrs; format: functional; settings: ATCC 6538, 24 h, read-out: MBC99.9
# [6] = tested on: Staphylococcus epidermidis; assay: Bactericidal activity against methicillin-resistant Staphylococcus epidermidis isolate 460/11 after 24 hrs; format: functional; settings: isolate 460/11, 24 h, read-out: MBC99.9
# [7] = tested on: Staphylococcus epidermidis; assay: Antimicrobial activity against methicillin-resistant Staphylococcus epidermidis isolate 459/11 after 18 hrs by twofold serial broth dilution method; format: functional; settings: isolate 459/11, 18 h
# [8] = tested on: Pseudomonas aeruginosa; assay: Antimicrobial activity against Pseudomonas aeruginosa NCTC 6749 after 18 hrs by twofold serial broth dilution method; format: functional; settings: NCTC 6749, 18 h
# [9] = tested on: Staphylococcus epidermidis; assay: Antimicrobial activity against methicillin-resistant Staphylococcus epidermidis isolate 424/10 after 18 hrs by twofold serial broth dilution method; format: functional; settings: isolate 424/10, 18 h
# [10] = tested on: Bacillus subtilis; assay: Genotoxicity in rec-negative Bacillus subtilis M45 at 2 ug/9 mm disc after 24 hrs by disc diffusion method; format: toxicity, organism-based
# [11] = tested on: Staphylococcus epidermidis; assay: Antimicrobial activity against Staphylococcus epidermidis ATCC 12228 after 18 hrs by twofold serial broth dilution method; format: functional; settings: ATCC 12228, 18 h
# [12] = tested on: Pseudomonas aeruginosa; assay: Antimicrobial activity against Pseudomonas aeruginosa ATCC 27853 after 18 hrs by twofold serial broth dilution method; format: functional; settings: ATCC 27853, 18 h
# [13] = tested on: Staphylococcus epidermidis; assay: Bactericidal activity against methicillin-resistant Staphylococcus epidermidis isolate 470/11 after 24 hrs; format: functional; settings: isolate 470/11, 24 h, read-out: MBC99.9
# [14] = tested on: Escherichia coli; assay: Antimicrobial activity against Escherichia coli NCTC 8196 after 18 hrs by twofold serial broth dilution method; format: functional; settings: NCTC 8196, 18 h
# [15] = tested on: Staphylococcus epidermidis; assay: Bactericidal activity against methicillin-resistant Staphylococcus epidermidis isolate 469/11 after 24 hrs; format: functional; settings: isolate 469/11, 24 h, read-out: MBC99.9
# [16] = tested on: Staphylococcus epidermidis; assay: Antimicrobial activity against methicillin-resistant Staphylococcus epidermidis isolate 409/10 after 18 hrs by twofold serial broth dilution method; format: functional; settings: isolate 409/10, 18 h
# [17] = tested on: Pseudomonas aeruginosa; assay: Bactericidal activity against Pseudomonas aeruginosa ATCC 27853 after 24 hrs; format: functional; settings: ATCC 27853, 24 h, read-out: MBC99.9
# [18] = tested on: Staphylococcus epidermidis; assay: Bactericidal activity against methicillin-resistant Staphylococcus epidermidis isolate 461/11 after 24 hrs; format: functional; settings: isolate 461/11, 24 h, read-out: MBC99.9
# [19] = tested on: Bacillus anthracis; assay: Antimicrobial activity against Bacillus anthracis 34F2 after 18 hrs by twofold serial broth dilution method; format: functional; settings: 34F2, 18 h
# [20] = tested on: Escherichia coli; assay: Bactericidal activity against Escherichia coli ATCC 10538 after 24 hrs; format: functional; settings: ATCC 10538, 24 h, read-out: MBC99.9
# [21] = tested on: Staphylococcus epidermidis; assay: Antimicrobial activity against methicillin-resistant Staphylococcus epidermidis isolate 461/11 after 18 hrs by twofold serial broth dilution method; format: functional; settings: isolate 461/11, 18 h
# [22] = tested on: Staphylococcus epidermidis; assay: Bactericidal activity against methicillin-resistant Staphylococcus epidermidis isolate 457/11 after 24 hrs; format: functional; settings: isolate 457/11, 24 h, read-out: MBC99.9
# [23] = tested on: Staphylococcus epidermidis; assay: Bactericidal activity against methicillin-resistant Staphylococcus epidermidis isolate 407/10 after 24 hrs; format: functional; settings: isolate 407/10, 24 h, read-out: MBC99.9
# [24] = tested on: Staphylococcus epidermidis; assay: Antimicrobial activity against methicillin-resistant Staphylococcus epidermidis isolate 404/10 after 18 hrs by twofold serial broth dilution method; format: functional; settings: isolate 404/10, 18 h
# [25] = tested on: Bacillus subtilis; assay: Genotoxicity in rec-positive Bacillus subtilis H17 at 2 ug/9 mm disc after 24 hrs by disc diffusion method; format: toxicity, organism-based
# [26] = tested on: Escherichia coli; assay: Antimicrobial activity against Escherichia coli ATCC 25922 after 18 hrs by twofold serial broth dilution method; format: functional; settings: ATCC 25922, 18 h
# [27] = tested on: Pseudomonas aeruginosa; assay: Bactericidal activity against Pseudomonas aeruginosa NCTC 6749 after 24 hrs; format: functional; settings: NCTC 6749, 24 h, read-out: MBC99.9
# [28] = tested on: Pseudomonas aeruginosa; assay: Bactericidal activity against Pseudomonas aeruginosa ATCC 15442 after 24 hrs; format: functional; settings: ATCC 15442, 24 h, read-out: MBC99.9
# [29] = tested on: Escherichia coli; assay: Bactericidal activity against Escherichia coli NCTC 8196 after 24 hrs; format: functional; settings: NCTC 8196, 24 h, read-out: MBC99.9
# [30] = tested on: Staphylococcus epidermidis; assay: Bactericidal activity against methicillin-resistant Staphylococcus epidermidis isolate 409/10 after 24 hrs; format: functional; settings: isolate 409/10, 24 h, read-out: MBC99.9
# [31] = tested on: Staphylococcus epidermidis; assay: Bactericidal activity against methicillin-resistant Staphylococcus epidermidis isolate 405/10 after 24 hrs; format: functional; settings: isolate 405/10, 24 h, read-out: MBC99.9
# [32] = tested on: Staphylococcus epidermidis; assay: Antimicrobial activity against methicillin-resistant Staphylococcus epidermidis isolate 469/11 after 18 hrs by twofold serial broth dilution method; format: functional; settings: isolate 469/11, 18 h
# [33] = tested on: Staphylococcus epidermidis; assay: Antimicrobial activity against methicillin-resistant Staphylococcus epidermidis isolate 454/11 after 18 hrs by twofold serial broth dilution method; format: functional; settings: isolate 454/11, 18 h
# [34] = tested on: Staphylococcus epidermidis; assay: Antimicrobial activity against methicillin-resistant Staphylococcus epidermidis isolate 470/11 after 18 hrs by twofold serial broth dilution method; format: functional; settings: isolate 470/11, 18 h
# [35] = tested on: Staphylococcus epidermidis; assay: Antimicrobial activity against methicillin-resistant Staphylococcus epidermidis isolate 407/10 after 18 hrs by twofold serial broth dilution method; format: functional; settings: isolate 407/10, 18 h
# [36] = tested on: Staphylococcus aureus; assay: Antimicrobial activity against Staphylococcus aureus ATCC 25923 after 18 hrs by twofold serial broth dilution method; format: functional; settings: ATCC 25923, 18 h
# [37] = tested on: Staphylococcus aureus; assay: Bactericidal activity against Staphylococcus aureus NCTC 4163 after 24 hrs; format: functional; settings: NCTC 4163, 24 h, read-out: MBC99.9
# [38] = tested on: Staphylococcus epidermidis; assay: Bactericidal activity against Staphylococcus epidermidis ATCC 35984 after 24 hrs; format: functional; settings: ATCC 35984, 24 h, read-out: MBC99.9
# [39] = tested on: Staphylococcus aureus; assay: Bactericidal activity against Staphylococcus aureus ATCC 25923 after 24 hrs; format: functional; settings: ATCC 25923, 24 h, read-out: MBC99.9
# [40] = tested on: Staphylococcus aureus; assay: Antimicrobial activity against Staphylococcus aureus […] after 18 hrs by twofold serial broth dilution method; format: functional
# [41] = tested on: Staphylococcus epidermidis; assay: Bactericidal activity against methicillin-resistant Staphylococcus epidermidis isolate 422/10 after 24 hrs; format: functional; settings: isolate 422/10, 24 h, read-out: MBC99.9
# [42] = tested on: Staphylococcus epidermidis; assay: Antimicrobial activity against methicillin-resistant Staphylococcus epidermidis isolate 422/10 after 18 hrs by twofold serial broth dilution method; format: functional; settings: isolate 422/10, 18 h
# [43] = tested on: Staphylococcus aureus; assay: Bactericidal activity against Staphylococcus aureus […] after 24 hrs; format: functional; settings: read-out: MBC99.9
compound,measurement,setting,value
CC[C@@H](C(=O)[C@@H](C)[C@@H](O)[C@H](C)[C@@H]1O[C@@H]([C@@H](CC)C(=O)N(CC)CC)CC[C@@H]1C)[C@H]1O[C@]2(C=C[C@@H](O)[C@]3(CC[C@@](C)([C@H]4CC[C@](O)(CC)[C@H](C)O4)O3)O2)[C@H](C)C[C@@H]1C,MBC,[1],128 µg/mL
same,MIC,[2],4 µg/mL
same,MBC,[3],256 µg/mL
same,MIC,[4],4 µg/mL
same,MBC,[5],64 µg/mL
same,MBC,[6],256 µg/mL
same,MIC,[7],4 µg/mL
same,MIC,[8],> 256 µg/mL
same,MIC,[9],8 µg/mL
same,diameter of the inhibition zone (DIZ),[10],26 mm
same,MIC,[11],2 µg/mL
same,MIC,[12],> 256 µg/mL
same,MBC,[13],128 µg/mL
same,MIC,[14],> 256 µg/mL
same,MBC,[15],256 µg/mL
same,MIC,[16],4 µg/mL
same,MBC,[17],> 256 µg/mL
same,MBC,[18],128 µg/mL
same,MIC,[19],1 µg/mL
same,MBC,[20],> 256 µg/mL
same,MIC,[21],4 µg/mL
same,MBC,[22],128 µg/mL
same,MBC,[23],128 µg/mL
same,MIC,[24],4 µg/mL
same,diameter of the inhibition zone (DIZ),[25],26 mm
same,MIC,[26],> 256 µg/mL
same,MBC,[27],> 256 µg/mL
same,MBC,[28],> 256 µg/mL
same,MBC,[29],> 256 µg/mL
same,MBC,[30],256 µg/mL
same,MBC,[31],256 µg/mL
same,MIC,[32],8 µg/mL
same,MIC,[33],4 µg/mL
same,MIC,[34],4 µg/mL
same,MIC,[35],4 µg/mL
same,MIC,[36],2 µg/mL
same,MBC,[37],64 µg/mL
same,MBC,[38],128 µg/mL
same,MBC,[39],64 µg/mL
same,MIC,[40],4 µg/mL
same,MBC,[41],256 µg/mL
same,MIC,[42],8 µg/mL
same,MBC,[43],64 µg/mL
